Laboratory results from patent US8637523B2, “Compounds for the reduction of beta-amyloid production” (Bristol-Myers Squibb Company, priority 2010, dated 2014).
Read-outs that look alike come from different tables or passages of the source.

Test system: Aβ42
Assay: Cellular assay for inhibition of Aβ1-42 production (H4 APP751 SWE clone 8.20)
Assay type: cell-based
Conditions: H4 APP751 SWE clone 8.20 cells, 19 h incubation
Description: Cellular Assays for Inhibition of Aβ1-40 and Aβ1-42 Production
H4 cells stably transfected with APP751 containing the Swedish mutation (H4 APP751 SWE clone 8.20, developed at BMS) were maintained in log phase through twice weekly passage at a 1:20 split. […] Following incubation for 19 h in 5% CO2 at 37° C., plates were briefly centrifuged (1000 rpm, 5 min). A 10 μl aliquot from each well was transferred to a second assay plate (Costar 3709) for Aβ40 measurements. Antibody cocktails were freshly prepared by dilution into 40 mM Tris-HCl (pH 7.4) with 0.2% BSA and added to assay plates. For Aβ42 measurements, antibodies specific for the Aβ42 neoepitope (565, developed at BMS; conjugated to the Wallac reagent (Perkin Elmer)) and the N-terminal sequence of Aβ peptide (26D6, developed at SIBIA; conjugated to APC (Perkin Elmer)) were mixed and 20 μl of the mixture was added to each well of the incubated cell plate yielding a final concentration of 0.8 ng/well 565 and 75 ng/well 26D6. For the Aβ40 measurements, antibodies specific for the Aβ40 neoepitope (TSD, developed at BMS; conjugated to the Wallac reagent (Perkin Elmer)) and 26D6 as described above were mixed and 20 μl of the mixture was added to the 10 μl aliquots which had been removed previously from the cell plate yielding a final concentration of 1.6 ng/well TSD and 17.5 ng/well 26D6. Assay plates containing antibodies were sealed with aluminum foil and incubated overnight at 4° C. Signal was determined using a Viewlux counter (Perkin Elmer) and IC50 values determined using curve fitting in CurveMaster (Excel Fit based).

[1] = read-out: Activity Rating (Aβ42 cellular IC50), class symbol
[2] = 19 h, read-out: Activity Rating (Aβ42 cellular IC50), class symbol
[3] = unit inferred, read-out: Activity Rating (Aβ42 cellular IC50), numeric value
[4] = 19 h, unit inferred, read-out: Activity Rating (Aβ42 cellular IC50), numeric value

| Molecule | IC50 [1] [nM] | also measured |
| --- | --- | --- |
| Cc1ncnn1-c1ccc2cc1OCC=CCNc1nc(nc3c1CCC3c1ccccc1)N2 (stereo not drawn) [Example 42B, (11Z)-7-(5-methyl-1H-1,2,4-triazol-1-yl)-18-phenyl-10,13,14,16,17,18-hexahydro-15,2-(azeno)-8,4-(metheno)cyclopenta[h][1,6,10,12]oxatriazacycloheptadecine] | 10 to 100 | – |
| Cc1ncn(-c2ccc3cc2OCC(O)CCNc2nc(nc4c2CCC4c2ccc(F)cc2)N3)n1 (single isomer, unassigned) [Example 72B, 18-(4-fluorophenyl)-7-(3-methyl-1H-1,2,4-triazol-1-yl)-10,11,12,13,14,16,17,18-octahydro-15,2-(azeno)-8,4-(metheno)cyclopenta[h][1,6,10,12]oxatriazacycloheptadecin-11(3H)-ol] | – | IC50 [2]: < 10 nM |
| CC1(c2ccc(F)cc2)CCc2c3nc(nc21)Nc1ccc(C#N)c(c1)OC/C=C\CN3 (stereo not drawn) [Example 69, (11Z)-7-cyano-18-(4-fluorophenyl)-18-methyl-10,13,14,16,17,18-hexahydro-15,2-(azeno)-8,4-(metheno)cyclopenta[h][1,6,10,12]oxatriazacycloheptadecine] | – | IC50 [3]: 120 nM |
| Cc1ncn(-c2ccc3cc2OC/C=C\CN(C)c2nc(nc4c2CCC4c2ccccc2)N3)n1 (stereo not drawn) [Example 44A, (11Z)-14-methyl-7-(3-methyl-1H-1,2,4-triazol-1-yl)-18-phenyl-10,13,14,16,17,18-hexahydro-15,2-(azeno)-8,4-(metheno)cyclopenta[h][1,6,10,12]oxatriazacycloheptadecine] | – | IC50 [2]: < 10 nM |
| Cc1ncn(-c2ccc3cc2OCC(O)CCNc2nc(nc4c2CCC4c2ccc(F)cc2)N3)n1 (single isomer, unassigned) [Example 72A, 18-(4-fluorophenyl)-7-(3-methyl-1H-1,2,4-triazol-1-yl)-10,11,12,13,14,16,17,18-octahydro-15,2-(azeno)-8,4-(metheno)cyclopenta[h][1,6,10,12]oxatriazacycloheptadecin-11(3H)-ol] | < 10 | – |
| N#Cc1ccc2cc1OCCNCCNc1nc(nc3c1CCC3c1ccc(F)cc1)N2 (single isomer, unassigned) [Example 26A, 7-cyano-19-(4-fluorophenyl)-11,12,13,14,15,17,18,19-octahydro-10H-16,2-(azeno)-8,4-(metheno)cyclopenta[i][1,4,7,11,13]oxatetraazacyclooctadecine] | 10 to 100 | – |
| N#Cc1ccc2cc1OCC=CCNc1nc(nc3c1CCC3c1ccccc1)N2 (stereo not drawn) [Example 21A, (11Z)-7-cyano-18-phenyl-10,13,14,16,17,18-hexahydro-15,2-(azeno)-8,4-(metheno)cyclopenta[h][1,6,10,12]oxatriazacycloheptadecine] | – | IC50 [3]: 7.8 nM |
| CN1CCCCOc2cc(ccc2C#N)Nc2nc3c(c1n2)CCC3c1ccccc1 (single isomer, unassigned) [Example 34A, 7-cyano-14-methyl-18-phenyl-10,11,12,13,14,16,17,18-octahydro-15,2-(azeno)-8,4-(metheno)cyclopenta[h][1,6,10,12]oxatriazacycloheptadecine] | – | IC50 [3]: 21 nM |
| Clc1cn(-c2ccc3cc2OC/C=C/CCNc2nc(nc4c2CCC4c2ccccc2)N3)cn1 (stereo not drawn) [Example 5A, (11E)-7-(4-chloro-1H-imidazol-1-yl)-19-phenyl-3,10,13,14,15,17,18,19-octahydro-2,16-(azeno)-8,4-(metheno)cyclopenta[j][1,7,9,13]oxatriazacyclooctadecine] | < 10 | – |
| Cc1ncn(-c2ccc3cc2OCC(O)CCNc2nc(nc4c2CCC4c2ccc(F)cc2)N3)n1 (single isomer, unassigned) [Example 72D, 18-(4-fluorophenyl)-7-(3-methyl-1H-1,2,4-triazol-1-yl)-10,11,12,13,14,16,17,18-octahydro-15,2-(azeno)-8,4-(metheno)cyclopenta[h][1,6,10,12]oxatriazacycloheptadecin-11(3H)-ol] | < 10 | – |
| Cc1ncn(-c2ccc3cc2OCCNCCNc2nc(nc4c2CCC4c2ccc(F)cc2)N3)n1 (single isomer, unassigned) [Example 55A, 19-(4-fluorophenyl)-7-(3-methyl-1H-1,2,4-triazol-1-yl)-11,12,13,14,15,17,18,19-octahydro-10H-16,2-(azeno)-8,4-(metheno)cyclopenta[i][1,4,7,11,13]oxatetraazacyclooctadecine] | 10 to 100 | – |
| CN1CCCCOc2cc(ccc2C#N)Nc2nc3c(c1n2)CCC3c1ccc(F)cc1F (single isomer, unassigned) [Example 32A, 7-cyano-18-(2,4-difluorophenyl)-14-methyl-10,11,12,13,14,16,17,18-octahydro-15,2-(azeno)-8,4-(metheno)cyclopenta[h][1,6,10,12]oxatriazacycloheptadecine] | 10 to 100 | – |
| CN1C/C=C\COc2cc(ccc2-n2cnc(Cl)c2)Nc2nc3c(c1n2)CCC3c1ccc(F)cc1F (stereo not drawn) [Example 18A, (11Z)-7-(4-chloro-1H-imidazol-1-yl)-18-(2,4-difluorophenyl)-14-methyl-10,13,14,16,17,18-hexahydro-15,2-(azeno)-8,4-(metheno)cyclopenta[h][1,6,10,12]oxatriazacycloheptadecine] | – | IC50 [2]: < 10 nM |
| CN1CCCOc2cc(ccc2-n2cnc(Cl)c2)Nc2nc3c(c1n2)CCC3c1ccc(F)cc1F (stereo not drawn) [Example 20B, 7-(4-chloro-1H-imidazol-1-yl)-17-(2,4-difluorophenyl)-13-methyl-11,12,13,15,16,17-hexahydro-10H-14,2-(azeno)-8,4-(metheno)cyclopenta[g][1,5,9,11]oxatriazacyclohexadecine] | – | IC50 [4]: 11 nM |
| N#Cc1ccc2cc1OCC=CCNc1nc(nc3c1CCC3c1ccc(F)cc1F)N2 (stereo not drawn) [Example 24A, (11Z)-7-cyano-18-(2,4-difluorophenyl)-10,13,14,16,17,18-hexahydro-15,2-(azeno)-8,4-(metheno)cyclopenta[h][1,6,10,12]oxatriazacycloheptadecine] | < 10 | – |
| (11Z)-18-(2,4-difluorophenyl)-7-(3-methyl-1H-1,2,4-triazol-1-yl)-10,13,14,16,17,18-hexahydro-15,2-(azeno)-8,4-(metheno)cyclopenta[h][1,6,10,12]oxatriazacycloheptadecine [Example 51A] | < 10 | – |
| Cc1ncn(-c2ccc3cc2OCCCCNc2nc(nc4c2CCC4c2ccc(F)cc2F)N3)n1 (stereo not drawn) [Example 64B, 18-(2,4-difluorophenyl)-7-(3-methyl-1H-1,2,4-triazol-1-yl)-10,11,12,13,14,16,17,18-octahydro-15,2-(azeno)-8,4-(metheno)cyclopenta[h][1,6,10,12]oxatriazacycloheptadecine] | – | IC50 [2]: 10 to 100 nM |
| CN1CCNc2nc(nc3c2CCC3c2ccc(F)cc2)Nc2ccc(C#N)c(c2)OCC1 (single isomer, unassigned) [Example 27B, 7-cyano-19-(4-fluorophenyl)-12-methyl-11,12,13,14,15,17,18,19-octahydro-10H-16,2-(azeno)-8,4-(metheno)cyclopenta[i][1,4,7,11,13]oxatetraazacyclooctadecine] | 100 to 1000 | – |
| Cc1ncnn1-c1ccc2cc1OC/C=C\CN(C)c1nc(nc3c1CCC3c1ccccc1)N2 (stereo not drawn) [Example 41B, (11Z)-14-methyl-7-(5-methyl-1H-1,2,4-triazol-1-yl)-18-phenyl-10,13,14,16,17,18-hexahydro-15,2-(azeno)-8,4-(metheno)cyclopenta[h][1,6,10,12]oxatriazacycloheptadecine] | – | IC50 [2]: 10 to 100 nM |
| N#Cc1ccc2cc1OCC=CCNc1nc(nc3c1CCC3c1ccccc1)N2 (stereo not drawn) [Example 22A, (11E)-7-cyano-18-phenyl-10,13,14,16,17,18-hexahydro-15,2-(azeno)-8,4-(metheno)cyclopenta[h][1,6,10,12]oxatriazacycloheptadecine] | 10 to 100 | – |
| (11Z)-7-(3-methyl-1H-1,2,4-triazol-1-yl)-18-phenyl-10,13,14,16,17,18-hexahydro-15,2-(azeno)-8,4-(metheno)cyclopenta[h][1,10,12]oxadiazacycloheptadecine [Example 58A] | < 10 | – |
| CN1CCCOc2cc(ccc2C#N)Nc2nc3c(c1n2)CCC3c1ccccc1 (stereo not drawn) [Example 31B, 7-cyano-β-methyl-17-phenyl-11,12,13,15,16,17-hexahydro-10H-14,2-(azeno)-8,4-(metheno)cyclopenta[g][1,5,9,11]oxatriazacyclohexadecine] | – | IC50 [4]: 31 nM |
| Clc1cn(-c2ccc3cc2OC/C=C/CCNc2nc(nc4c2CCC4c2ccccc2)N3)cn1 (stereo not drawn) [Example 5B, (11E)-7-(4-chloro-1H-imidazol-1-yl)-19-phenyl-3,10,13,14,15,17,18,19-octahydro-2,16-(azeno)-8,4-(metheno)cyclopenta[j][1,7,9,13]oxatriazacyclooctadecine] | – | IC50 [2]: 10 to 100 nM |
| (11Z)-7-(3-methyl-1H-1,2,4-triazol-1-yl)-18-phenyl-10,13,14,16,17,18-hexahydro-15,2-(azeno)-8,4-(metheno)cyclopenta[h][1,10,12]oxadiazacycloheptadecine [Example 58B] | – | IC50 [3]: 24 nM |
